From patent publication US9079891B2, “Compounds that modulate intracellular calcium” (CALCIMEDICA, INC., priority 2010, dated 2015)
Where two headings read alike, the source gives them in different places. Blank lines part the entries; values can stand above or below the compound they belong to.

Key:
[1] = target: T1, recombinant human STIM1 and Orai1 (Homo sapiens, UniProt Q96D31); assay: Fluorescence-based assay of store-operated calcium entry in Orai1/STIM1 stable cells (FLIPR); format: cell-based; details: HEK-293 cells stably expressing human Orai1/STIM1; Fluo-4; Peak-Basal signal; read-out: FLIPR_CRAC: 9 point CRC: O1S1_JR251: IC50: Peak_over_Basal
T1 construct: c-myc (C); expressed in transfected cells; host or cells: HEK-293 cells stably expressing human STIM1 and human Orai1
T1 sequence (Q96D31 whole entry): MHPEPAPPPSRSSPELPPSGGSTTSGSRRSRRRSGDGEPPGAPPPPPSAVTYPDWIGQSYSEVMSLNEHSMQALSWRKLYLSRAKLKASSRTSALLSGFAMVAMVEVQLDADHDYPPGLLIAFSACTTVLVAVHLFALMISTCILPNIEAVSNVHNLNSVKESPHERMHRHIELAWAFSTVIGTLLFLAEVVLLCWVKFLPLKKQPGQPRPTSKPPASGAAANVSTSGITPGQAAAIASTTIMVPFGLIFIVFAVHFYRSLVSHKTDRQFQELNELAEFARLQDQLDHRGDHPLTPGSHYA
Procedure: A. Fluorescence-Based Assay of Store-Operated Calcium Entry in Orai1/Stim1 Stable Cells.
Cells stably expressing recombinant human STIM1 and Orai1 are generated by transfecting a human Orai1 expression plasmid (pcDNA3.1-Orai1-cmyc) into HEK-293 cells stably overexpressing human STIM1 (Roos et al. 2005 JCB 169(3): 435-445). Colonies of cells stably expressing both STIM1 and Orai1 proteins are selected and then subcloned by limiting dilution. Cells were cultured at 37° C./6% CO2 in complete medium with 10% FBS and appropriate selection markers.
The day prior to performing the assay Orai1/STIM1 stable cells are plated in 50 μL of complete medium at 90-95% confluence in a 384 well plate. Cells are grown at 37° C./6% CO2 overnight. On the day of the assay, 1.5 μM fluo-4-AM (Invitrogen) in complete medium is added to the cells, which are then incubated for 1 hour at RT. Cells are washed once in Ca^2+-free HBSS (Hank's buffered saline solution) and 35 μl of Ca^2+-free HBSS is added to each well. Test compounds are added to wells in a 10 μL Ca^2+-free HBSS solution, prepared at 4.5× the desired final concentration, and incubated for 30 minutes at RT. The initial baseline fluorescence signal is then measured with a FLIPR^384 (Molecular Devices) plate reader. Calcium entry is initiated by adding 5 μl of 10×CaCl2 (10 mM) in HBSS, and changes in cellular fluorescence are measured with the FLIPR^384 plate reader. In each well, the magnitude of the fluorescence signal as a result of calcium entry into the cell is determined by calculating the difference between the peak fluorescence signal measured after calcium addition and the initial baseline fluorescence signal (designated Peak-Basal). IC50 values are typically calculated as the concentration that inhibited 50% of the Peak-Basal signal.

[2] = tested on: RBL-2H3 cells; assay: Fluorescence-based assay of store-operated calcium entry in RBL-2H3 cells (FLIPR, thapsigargin); format: cell-based, rat; details: Fluo-4, Upslope 0-7 sec, read-out: FLIPR_CRAC: 9 pt CRC - Fluo4_TG-D: RBL-2H3: IC50: Upslope 0-7 sec
Procedure: B. Fluorescence-Based Assay of Store-Operated Calcium Entry in RBL-2H3 Cells.
RBL-2H3 cells are obtained from ATCC and maintained in complete medium with 10% FBS at 37° C./6% CO2.
The day prior to performing the assay, RBL-2H3 cells are plated in 50 μl of complete medium in a 384 well plate. Cells are grown at 37° C./6% CO2 overnight and grow to 50-60% confluence by the next day. On the assay day, 1.5 μM Fluo-4-AM dye (Invitrogen) in complete medium is added and incubated for 1 hour at RT. Cells are washed twice in Ca^2+-free HBSS buffer and 35 μl Ca^2+-free HBSS buffer is added to each well. 10 μl of a test compound prepared in a Ca^2+-free HBSS solution at 4.5× of the desired concentration is added to a well and incubated for 5 minutes at RT. 10 μl of thapsigargin prepared in a Ca^2+-free HBSS solution at 5.5× of the desired concentration (5.5 uM) is added to each well and incubated for an additional 25 minutes. The initial baseline fluorescence signal is measured with a FLIPR^384 (Molecular Devices) plate reader. 5 μl of 12× calcium in HBSS (12 mM) is added and changes in cellular fluorescence are measured with the FLIPR^384 plate reader. In each well, the change in the fluorescent signal as a function of time due to calcium entry into the cell is determined by calculating the difference between the fluorescent signal measured 7 seconds after calcium addition and the initial baseline fluorescence signal at time zero (t=0). This parameter is designated Upslope. The IC50 value is calculated as the concentration at which 50% of the Upslope is inhibited.

[3] = tested on: secreted IL-2 in Jurkat T cells; assay: In vitro assay of cytokine (IL-2) release from T cells; format: cell-based; details: Jurkat E6-1 cells, PHA/TPA stimulation 20 hours, IL-2 ELISA
Procedure: In Vitro Assay of Cytokine Release from T Cells
Jurkat E6-1 cells are obtained from ATCC and maintained in complete medium with 10% FBS at 37° C./6% CO2.
The day prior to performing the assay, Jurkat T cells are plated in 90 μL of HBSS Buffer with 1.8 mM CaCl2 and 1.75% fetal bovine serum (FBS) in a 96 well plate at a density of 1.5×10^5 cells/well for 3 hours. 10 μl of 10× test compound prepared in HBSS is added and incubated for 10 minutes at 37° C./6% CO2. Cells are stimulated by the addition of 10 μl of 11×PHA/TPA (27.5 μg/mL PHA/880 nM TPA) and incubated at 37° C./6% CO2 for 20 hours. On the following day, the supernatants are collected and assayed for IL-2 levels by ELISA according to the manufacturer's protocols. The IC50 value is calculated as the concentration at which 50% of secreted IL-2 in vehicle treated cells is inhibited.

Structure (SMILES): Cc1cc2scnc2cc1-c1ccc(C(=O)Nc2ccccc2Cl)s1 [Example 6, N-(2-chlorophenyl)[5-(6-methylbenzothiazol-5-yl)(2-thienyl)]carboxamide]
IC50 [1]: < 600 nM
IC50 ([2]; Rattus norvegicus): < 600 nM
IC50 ([3]; Homo sapiens): < 50 nM

Structure (SMILES): Cc1nc2cc(Cl)c(-c3ccc(C(=O)Nc4ccccc4F)s3)cc2o1 [Example 2, [5-(5-chloro-2-methylbenzoxazol-6-yl)(2-thienyl)]-N-(2-fluorophenyl)carboxamide]
IC50 [1]: < 600 nM
IC50 ([2]; Rattus norvegicus): < 600 nM
IC50 ([3]; Homo sapiens): < 50 nM

Structure (SMILES): Cc1cc2c(C)noc2cc1-c1ccc(C(=O)Nc2ccccc2F)s1 [Example 11, [5-(3,5-dimethylbenzo[d]isoxazol-6-yl)(2-thienyl)]-N-(2-fluorophenyl)carboxamide]
IC50 [1]: < 600 nM
IC50 ([2]; Rattus norvegicus): < 600 nM
IC50 ([3]; Homo sapiens): < 50 nM

Structure (SMILES): Cc1nc2cc(Cl)c(-c3cnc(NC(=O)c4ccccc4Cl)s3)cc2o1 [Example 19, N-[5-(5-chloro-2-methybenzoxazol-6-yl)(1,3-thiazol-2-yl)](2-chlorophenyl)carboxamide]
IC50 [1]: < 600 nM
IC50 ([2]; Rattus norvegicus): < 600 nM
IC50 ([3]; Homo sapiens): 50 to 100 nM

Structure (SMILES): O=C(Nc1ccccc1F)c1ccc(-c2cc3scnc3cc2Cl)s1 [Example 9, [5-(5-chlorobenzothiazol-6-yl)(2-thienyl)]-N-(2-fluorophenyl)carboxamide]
IC50 [1]: < 600 nM
IC50 ([2]; Rattus norvegicus): < 600 nM
IC50 ([3]; Homo sapiens): < 50 nM

Structure (SMILES): Cc1cc2c(C)noc2cc1-c1ccc(C(=O)Nc2c(F)cccc2F)s1 [Example 10, N-(2,6-difluorophenyl)[5-(3,5-dimethylbenzo[d]isoxazol-6-yl)(2-thienyl)]carboxamide]
IC50 [1]: < 600 nM
IC50 ([2]; Rattus norvegicus): < 600 nM
IC50 ([3]; Homo sapiens): < 50 nM

Structure (SMILES): Cc1cc2scnc2cc1-c1cnc(NC(=O)c2c(F)cccc2F)s1 [Example 20]
IC50 [1]: 600 to 1200 nM
IC50 ([2]; Rattus norvegicus): < 600 nM
IC50 ([3]; Homo sapiens): < 50 nM

Structure (SMILES): Cc1nc2cc(Cl)c(-c3ccc(C(=O)Nc4ccccc4Cl)s3)cc2o1 [Example 1, [5-(5-chloro-2-methylbenzoxazol-6-yl)(2-thienyl)]-N-(2-chlorophenyl)carboxamide]
IC50 [1]: < 600 nM
IC50 ([2]; Rattus norvegicus): < 600 nM
IC50 ([3]; Homo sapiens): < 50 nM

Structure (SMILES): O=C(Nc1c(F)cccc1F)c1ccc(-c2cc3scnc3cc2Cl)s1 [Example 7, N-(2,6-difluorophenyl)[5-(5-chlorobenzothiazol-6-yl)(2-thienyl)]carboxamide]
IC50 [1]: < 600 nM
IC50 ([2]; Rattus norvegicus): < 600 nM
IC50 ([3]; Homo sapiens): < 50 nM

Structure (SMILES): Cc1nc2cc(Cl)c(-c3ccc(C(=O)Nc4c(F)cccc4F)s3)cc2o1 [Example 3, [5-(5-chloro-2-methylbenzoxazol-6-yl)(2-thienyl)]-N-(2,6-difluorophenyl)carboxamide]
IC50 [1]: < 600 nM
IC50 ([2]; Rattus norvegicus): < 600 nM
IC50 ([3]; Homo sapiens): < 50 nM

Structure (SMILES): Cc1cc2cn(C)nc2cc1-c1ccc(C(=O)Nc2ccccc2F)s1 [Example 13]
IC50 [1]: < 600 nM
IC50 ([2]; Rattus norvegicus): < 600 nM
IC50 ([3]; Homo sapiens): < 50 nM

Structure (SMILES): Cc1cc2scnc2cc1-c1ccc(C(=O)Nc2ccccc2F)s1 [Example 5, N-(2-fluorophenyl)[5-(6-methylbenzothiazol-5-yl)(2-thienyl)]carboxamide]
IC50 [1]: < 600 nM
IC50 ([2]; Rattus norvegicus): < 600 nM
IC50 ([3]; Homo sapiens): < 50 nM

Structure (SMILES): Cc1nc(-c2cc(-c3cnc(NC(=O)c4ccccc4Cl)s3)n(C)n2)no1 [Example 48]
IC50 [1]: < 600 nM
IC50 [2]: 600 to 1200 nM
IC50 [3]: > 100 nM

Structure (SMILES): Cc1cc2scnc2cc1-c1ccc(C(=O)Nc2c(F)cccc2F)s1 [Example 4, N-(2,6-difluorophenyl)[5-(6-methylbenzothiazol-5-yl)(2-thienyl)]carboxamide]
IC50 [1]: < 600 nM
IC50 ([2]; Rattus norvegicus): < 600 nM
IC50 ([3]; Homo sapiens): < 50 nM

Continued, values first:

IC50 [1]: < 600 nM
IC50 ([2]; Rattus norvegicus): < 600 nM
IC50 ([3]; Homo sapiens): < 50 nM
Structure (SMILES): Cn1nc(C(F)(F)F)cc1-c1cnc(NC(=O)c2ccccc2Cl)s1 [Example 27, (2-chlorophenyl)-N-{5-[1-methyl-3-(trifluoromethyl)pyrazol-5-yl](1,3-thiazol-2-yl)}carboxamide]

IC50 [1]: < 600 nM
IC50 ([2]; Rattus norvegicus): < 600 nM
IC50 ([3]; Homo sapiens): < 50 nM
Structure (SMILES): Cn1nc(C(F)(F)F)cc1-c1cnc(NC(=O)c2c(F)cccc2F)s1 [Example 28, (2,6-difluorophenyl)-N-{5-[1-methyl-3-(trifluoromethyl)pyrazol-5-yl](1,3-thiazol-2-yl)}carboxamide]

IC50 [1]: < 600 nM
IC50 ([2]; Rattus norvegicus): < 600 nM
IC50 ([3]; Homo sapiens): < 50 nM
Structure (SMILES): Cn1nc(-c2ccccc2)cc1-c1ccc(C(=O)Nc2ncc(Cl)cc2F)s1 [Example 46]

IC50 [1]: < 600 nM
IC50 ([2]; Rattus norvegicus): < 600 nM
IC50 ([3]; Homo sapiens): > 100 nM
Structure (SMILES): Cn1nc(-c2ccccc2F)cc1-c1ccc(C(=O)Nc2ccccc2Cl)s1 [Example 41]

IC50 [1]: > 1200 nM
IC50 ([2]; Rattus norvegicus): < 600 nM
IC50 ([3]; Homo sapiens): < 50 nM
Structure (SMILES): Cc1cc2c(cc1-c1cnc(NC(=O)c3c(F)cccc3F)s1)OC(F)(F)O2 [Example 83, (2,6-difluorophenyl)-N-[5-(2,2-difluoro-6-methylbenzo[d]1,3-dioxolen-5-yl)(1,3-thiazol-2-yl)]carboxamide]

IC50 [1]: < 600 nM
IC50 ([2]; Rattus norvegicus): < 600 nM
IC50 ([3]; Homo sapiens): < 50 nM
Structure (SMILES): Cn1nc(-c2nccs2)cc1-c1ccc(C(=O)Nc2ccccc2Cl)s1 [Example 55]

IC50 [1]: < 600 nM
IC50 ([2]; Rattus norvegicus): < 600 nM
IC50 ([3]; Homo sapiens): < 50 nM
Structure (SMILES): Cn1nc(-c2ccco2)cc1-c1ccc(C(=O)Nc2c(F)cccc2F)s1 [Example 56, N-(2,6-difluorophenyl)[5-(3-(2-furyl)-1-methylpyrazol-5-yl](2-thienyl)]carboxamide]

IC50 [1]: < 600 nM
IC50 ([2]; Rattus norvegicus): < 600 nM
IC50 ([3]; Homo sapiens): < 50 nM
Structure (SMILES): Cc1cc2c(cc1-c1cnc(NC(=O)c3ccncc3F)s1)OC(F)(F)O2 [Example 82]

IC50 [1]: < 600 nM
IC50 ([2]; Rattus norvegicus): < 600 nM
IC50 ([3]; Homo sapiens): < 50 nM
Structure (SMILES): Cn1nc(C(F)(F)F)cc1-c1ccc(NC(=O)c2c(F)cccc2F)s1 [Example 74, (2,6-difluorophenyl)-N-{5-[1-methyl-3-(trifluoromethyl)pyrazol-5-yl](2-thienyl)}carboxamide]

IC50 [1]: < 600 nM
IC50 ([2]; Rattus norvegicus): < 600 nM
IC50 ([3]; Homo sapiens): < 50 nM
Structure (SMILES): Cn1nc(-c2ccccc2F)cc1-c1ccc(C(=O)Nc2c(F)cccc2F)s1 [Example 35, N-(2,6-difluorophenyl){5-[3-(2-fluorophenyl)-1-methylpyrazol-5-yl](2-thienyl)}carboxamide]

IC50 [1]: < 600 nM
IC50 ([2]; Rattus norvegicus): < 600 nM
IC50 ([3]; Homo sapiens): < 50 nM
Structure (SMILES): Cc1cc2c(cc1-c1cnc(NC(=O)c3ccccc3F)s1)OC(F)(F)O2 [Example 84]

IC50 [1]: < 600 nM
IC50 ([2]; Rattus norvegicus): < 600 nM
IC50 ([3]; Homo sapiens): < 50 nM
Structure (SMILES): Cn1nc(-c2ccccc2)cc1-c1ccc(C(=O)Nc2c(F)cccc2F)s1 [Example 42, N-(2,6-difluorophenyl)[5-(1-methyl-3-phenylpyrazol-5-yl](2-thienyl)}carboxamide]
